The values that follow come from ChEMBL document CHEMBL1201862, “PubChem BioAssay data set” (2004).

SMILES strings stand for the structures.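 In this assay, cells in 96-well plates receive the compound at five concentrations for 48 hours. Endpoints are linearly interpolated between the surrounding concentrations. At the GI50, growth is halved.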 The source made the active and inactive calls. Rule as the data show it: active = GI50 up to about 1.1 µM and inactive = higher.

Some test systems named below: T47D; HCC 2998; LOX IMVI; HL-60; SN12C; SK-MEL-28; CCRF-CEM; OVCAR-8; MOLT-4; CAKI-1; OVCAR-5; Hs-578T; HOP-62; UACC-257; SK-OV-3; SF-539; SR; HCT-15; SF-268.
Common to all, as to test: NCI anticancer screen, dose series, 48 h

On to `CCN(CC)C1Oc2cc3c(cc2C(c2cc(OC)c(OC)c(OC)c2)C1C)OCO3` (stereo not given), for which the GI50 with T47D was 9.35 µM (inactive); in the assay with HCC 2998 it was 0.809 µM (active); with LOX IMVI it was 0.762 µM (active); with HL-60, 0.242 µM (active); in the assay on SN12C, 1.52 µM (inactive); in the assay with SK-MEL-28, 0.719 µM (active). Also, the GI50 in the assay on CCRF-CEM is 0.406 µM (active); with OVCAR-8 it was 1.39 µM (inactive); in the assay on MOLT-4, 0.871 µM (active); in the assay on CAKI-1, 1.85 µM (inactive); in the assay on OVCAR-5 it was 2 µM (inactive); in the assay with Hs-578T it was 0.759 µM (active). The GI50 with HOP-62 was 0.471 µM (active); with UACC-257 it was 2.88 µM (inactive); in the assay on SK-OV-3, 1.1 µM (active); in the assay with SF-539, 0.457 µM (active); in the assay with SR, 0.256 µM (active); in the assay with HCT-15, 0.518 µM. Moreover, the GI50 with SF-268 is 3.61 µM (inactive).

In the case of `O=C(OCC(OC(=O)c1ccccc1)C(OC(=O)c1ccccc1)C(OC(=O)c1ccccc1)c1cnn(-c2ccccc2)n1)c1ccccc1` (stereo not given), the GI50 in the assay with T47D, in the assay with HCC 2998, in the assay on LOX IMVI, with HL-60, with SN12C and with SK-MEL-28 was > 100 µM (inactive) throughout. The GI50 in the assay on CCRF-CEM, in the assay with OVCAR-8, with MOLT-4, with CAKI-1, with OVCAR-5 and in the assay with Hs-578T was > 100 µM (inactive) in each case. In addition, the GI50 in the assay on HOP-62 is > 100 µM (inactive); in the assay with UACC-257 it was > 100 µM (inactive); with SK-OV-3 it was > 100 µM (inactive); in the assay on SF-539, > 100 µM (inactive); with SR it was > 100 µM (inactive); in the assay with HCT-15, > 100 µM. For the same compound, the GI50 with SF-268 was > 100 µM (inactive).

For the compound `CC1CC[C@@]2(OC1)OC1C[C@H]3[C@@H]4CC=C5CC(OC6OC(CO)C(OC7OC(CO)C(O)C(OC8OCC(O)C(O)C8O)C7OC7OC(CO)C(OC8OC(C)C(OC9OC(C)C(O)C(O)C9O)C(O)C8O)C(O)C7O)C(O)C6O)CCC5(C)[C@H]4CCC3(C)C1[C@@H]2C` (stereo not given in full), the GI50 was 9.29 µM (inactive) in the assay with T47D; 7.08 µM (inactive) with HCC 2998; 8.99 µM (inactive) in the assay on LOX IMVI; 8.99 µM (inactive) with HL-60; 9.35 µM (inactive) in the assay on SN12C; 11.2 µM (inactive) in the assay with SK-MEL-28. In addition, the GI50 with CCRF-CEM is 10.4 µM (inactive); in the assay on OVCAR-8, 9.95 µM (inactive); in the assay on MOLT-4 it was 11.6 µM (inactive); in the assay on CAKI-1, 7.55 µM (inactive); in the assay with OVCAR-5 it was 7.46 µM (inactive); with Hs-578T, 9.29 µM (inactive). Also, the GI50 in the assay on HOP-62 is 7.13 µM (inactive); in the assay with UACC-257, 9.35 µM (inactive); in the assay on SK-OV-3, 9.23 µM (inactive); with SF-539, 6.08 µM (inactive); in the assay with SR, 0.495 µM (active); in the assay on HCT-15 it was 9.64 µM. Besides, in the assay with SF-268, the GI50 was 9.71 µM (inactive).

With `Oc1ccc(/C=C/c2cccc(/C=C/c3ccc(O)c(O)c3)n2)cc1O`, the GI50 is 3.4 µM (inactive) in the assay on T47D; 16.5 µM (inactive) with HCC 2998; 5.14 µM (inactive) in the assay on LOX IMVI; 2.82 µM (inactive) with HL-60; 8.87 µM (inactive) with SN12C; 14.2 µM (inactive) in the assay on SK-MEL-28. Also, the GI50 in the assay with CCRF-CEM is 2.75 µM (inactive); with OVCAR-8 it was 6.81 µM (inactive); in the assay with MOLT-4 it was 3.27 µM (inactive); with CAKI-1, 13.8 µM (inactive); in the assay on OVCAR-5, 9.95 µM (inactive); in the assay on Hs-578T, 54.5 µM (inactive). The GI50 with HOP-62 is 22.2 µM (inactive); in the assay on UACC-257, 13.9 µM (inactive); in the assay on SK-OV-3 it was 16.1 µM (inactive); with SF-539, 3.02 µM (inactive); in the assay on SR it was 3.49 µM (inactive); in the assay with HCT-15 it was 22.7 µM. Besides, the GI50 with SF-268 is 10.7 µM (inactive).

Consider `CC1CN=C(N(Cc2ccc(F)cc2)C(=O)Nc2ccc(Cl)cc2)S1` (stereo not given), for which the GI50 in the assay on T47D is 13.3 µM (inactive); in the assay with HCC 2998 it was 23.2 µM (inactive); with LOX IMVI, 16.1 µM (inactive); in the assay with HL-60, 17.5 µM (inactive); in the assay on SN12C, 28.2 µM (inactive); with SK-MEL-28 it was 16.3 µM (inactive). For the same compound, the GI50 in the assay on CCRF-CEM is 28 µM (inactive); in the assay with OVCAR-8, 30.1 µM (inactive); with MOLT-4, 27.7 µM (inactive); in the assay on CAKI-1 it was 5.32 µM (inactive); with OVCAR-5, > 100 µM (inactive); in the assay on Hs-578T, 51.3 µM (inactive). Moreover, the GI50 is 93.3 µM (inactive) in the assay with HOP-62; 45.9 µM (inactive) in the assay with UACC-257; > 100 µM (inactive) in the assay on SK-OV-3; 30.5 µM (inactive) in the assay on SF-539; 26.5 µM (inactive) in the assay on SR; 6.22 µM with HCT-15. Further, the GI50 in the assay with SF-268 was 21.4 µM (inactive).

Take `CCCCN(C)C(=O)C1=C(C)NC(C)=C(C(=O)N(C)CCCC)C1`: the GI50 with T47D is 54.7 µM (inactive); in the assay on HCC 2998 it was > 100 µM (inactive); in the assay on LOX IMVI, > 100 µM (inactive); with HL-60, 54.1 µM (inactive); in the assay with SN12C it was > 100 µM (inactive); in the assay on SK-MEL-28, > 100 µM (inactive). In addition, the GI50 was 66.2 µM (inactive) in the assay on CCRF-CEM; > 100 µM (inactive) in the assay on OVCAR-8; > 100 µM (inactive) in the assay with MOLT-4; > 100 µM (inactive) in the assay with CAKI-1; > 100 µM (inactive) in the assay on OVCAR-5; > 100 µM (inactive) in the assay with Hs-578T. In addition, the GI50 was > 100 µM (inactive) in the assay with HOP-62; > 100 µM (inactive) in the assay on UACC-257; > 100 µM (inactive) in the assay on SK-OV-3; > 100 µM (inactive) in the assay with SF-539; 83.9 µM (inactive) with SR; > 100 µM in the assay with HCT-15. For the same compound, the GI50 in the assay on SF-268 is > 100 µM (inactive).

As to `O=C1C=CC(=O)c2c1ccc1c3ccccc3n(CCCCCn3c4ccccc4c4ccc5c(c43)C(=O)C=CC5=O)c21`, the GI50 is 4.81 µM (inactive) in the assay on T47D; 33 µM (inactive) in the assay with HCC 2998; 16 µM (inactive) with LOX IMVI; 0.875 µM (active) in the assay with HL-60; 18.4 µM (inactive) with SN12C; 16.4 µM (inactive) in the assay with SK-MEL-28. In addition, the GI50 with CCRF-CEM is 0.454 µM (active); with OVCAR-8, 17.7 µM (inactive); in the assay on MOLT-4 it was 1.52 µM (inactive); in the assay with CAKI-1, 6.98 µM (inactive); with OVCAR-5 it was > 49.5 µM (inactive); in the assay on Hs-578T, 21.2 µM (inactive). Moreover, the GI50 is > 91.4 µM (inactive) with HOP-62; 16.3 µM (inactive) in the assay with UACC-257; > 100 µM (inactive) in the assay on SK-OV-3; 16.1 µM (inactive) with SF-539; 1.9 µM (inactive) with SR; 17.2 µM in the assay with HCT-15. The GI50 with SF-268 is 15.7 µM (inactive).

As to `O=c1[nH]c(=O)n(C2OC(CO)C(O)C2O)cc1OCCCc1ccccc1` (stereo not given), the GI50 in the assay with T47D, in the assay on HCC 2998, in the assay with LOX IMVI, with HL-60, in the assay on SN12C and in the assay on SK-MEL-28 was > 100 µM (inactive) each time. Also, the GI50 in the assay on CCRF-CEM, in the assay on OVCAR-8, in the assay with MOLT-4, in the assay on CAKI-1, in the assay with OVCAR-5 and in the assay on Hs-578T was > 100 µM (inactive) throughout. In addition, the GI50 in the assay on HOP-62 is > 100 µM (inactive); with UACC-257 it was > 100 µM (inactive); in the assay on SK-OV-3 it was > 100 µM (inactive); with SF-539, > 100 µM (inactive); in the assay with SR, > 100 µM (inactive); with HCT-15, > 100 µM. Moreover, the GI50 in the assay with SF-268 was > 100 µM (inactive).

Regarding `C=C1C(=O)OC2CC1C(O)C/C(C)=C/CC/C(C)=C/C(O)CC2C` (stereo not given), the GI50 is 0.824 µM (active) in the assay on T47D; 1.83 µM (inactive) in the assay on HCC 2998; 1.29 µM (inactive) in the assay with LOX IMVI; 0.262 µM (active) in the assay on HL-60; 1.85 µM (inactive) with SN12C; 4.9 µM (inactive) in the assay with SK-MEL-28. Besides, the GI50 in the assay on CCRF-CEM was 0.203 µM (active); with OVCAR-8, 1.89 µM (inactive); in the assay on MOLT-4, 0.625 µM (active); in the assay on CAKI-1 it was 2.75 µM (inactive); with OVCAR-5, 4.97 µM (inactive); with Hs-578T it was 3.03 µM (inactive). Also, the GI50 was 11.4 µM (inactive) in the assay on HOP-62; 2.4 µM (inactive) with UACC-257; 12.7 µM (inactive) in the assay on SK-OV-3; 2.35 µM (inactive) with SF-539; 0.52 µM (active) in the assay with SR; 1.73 µM in the assay with HCT-15. Moreover, the GI50 in the assay on SF-268 is 2.79 µM (inactive).

In the case of `Cc1cccc(C)c1/N=N/c1ccc(O)c(CN(C)C)c1`, the GI50 in the assay with T47D was 23.6 µM (inactive); in the assay with HCC 2998, 19.9 µM (inactive); in the assay on LOX IMVI it was 36.5 µM (inactive); in the assay on HL-60 it was 26.9 µM (inactive); in the assay on SN12C, > 100 µM (inactive); with SK-MEL-28, 20.7 µM (inactive). For the same compound, the GI50 is 34.8 µM (inactive) with CCRF-CEM; > 100 µM (inactive) in the assay with OVCAR-8; 34.8 µM (inactive) in the assay on MOLT-4; 79.4 µM (inactive) in the assay on CAKI-1; 28.3 µM (inactive) in the assay with OVCAR-5; 30.8 µM (inactive) in the assay on Hs-578T. The GI50 with HOP-62 is 51.6 µM (inactive); in the assay on UACC-257, 32.7 µM (inactive); in the assay with SK-OV-3, > 100 µM (inactive); in the assay with SF-539 it was 79.4 µM (inactive); in the assay on SR, 34.4 µM (inactive); with HCT-15, > 100 µM. For the same compound, the GI50 in the assay with SF-268 is 47 µM (inactive).
